Experiments:
[1] = animals, oral administration; cited from earlier work
[2] = Storage stability of artemether in solvent systems, impurities by HPLC; assay type: physicochemical; details: in contact with water, ethanol, or propellants
Text: Tables 1 and 2 show impurities present in Artemether API, and artemether in three solvent systems: 20% ethanol+80% propellant; 50% ethanol+50% propellant; 100% ethanol; and a medium chain triglyceride, in this case, the triglyceride sold under the registered trade mark Miglyol® 810. Miglyol® is a medium chain triglyceride containing saturated C8 and C10 fatty acids, typically between 65-80% of caprylic acid (C8:0) and 20-35% of capric acid (C10:0). The propellant used in these test was 1,1,1,2 tetrafluoroethane, sold under the registered trade mark Zephex® 134a. Similar results were obtained for the propellants butane, Zephex® 227 (1,1,1,2,3,3,3 heptafluoropropane) and for a mixture of butane and propane. […] In all other cases, the impurities are at levels that exceed those permitted under the ICH Harmonised Tripartite Guidelines for Impurities in New Drug Products without specific identification or further toxicological examination.

CO[C@H]1O[C@@H]2O[C@@]3(C)CC[C@H]4[C@H](C)CC[C@@H]([C@H]1C)[C@@]24OO3 [artemether]
bioavailability [1]: 19-35% | Stability of artemether in contact with solvents [2]: not stable

From patent US20190290576A1, “ANTI-MALARIAL PHARMACEUTICAL COMPOSITION” (Protopharma Limited, priority 2007, published 2019)
